Patent publication US20110294736A1, “COMPOUNDS AND METHODS FOR THE TREATMENT OF AUTOIMMUNE AND INFLAMMATORY DISEASE” (THE PROVOST, FELLOWS AND SCHOLARS OF THE HOLY AND UNDIVIDED …, priority 2008, published 2011)

Assays:
[1] = tested on: experimental autoimmune encephalomyelitis (EAE) in C57BL/6 mice; assay: EAE induced with MOG35-55/CFA and pertussis toxin, clinical score and body weight; type: in vivo
Method: EAE was induced in C57BL/6 mice by subcutaneous (s.c) injection with 150 μg of MOG35-55 in CFA supplemented with 4 mg/ml H37 Ra M. tuberculosis on day 0. All mice were injected intra-peritoneally (i.p) with Pertussis toxin (PT) on days 0 and 2. One group of mice were untreated and the second group were given Tri-DAP (100 μg/mouse) on day 0 in MOG/CFA emulsion and again on days 1, 2 and every 2 days thereafter. Clinical scores were assessed daily and body weights were recorded. Disease severity was graded as follows: grade 0: normal, grade 1: limp tail, grade 2: wobbly gait; grade 3: hind limb weakness; grade 4: hind limb paralysis; grade 5: tetraparalysis/death. † indicates control mice were sacrificed due to severity of EAE disease.

[2] = tested on: MOG-specific IL-17, IFN-γ and TNF-α response of lymph node cells; assay: MOG-specific cytokines (ELISA) of restimulated lymph node cells after EAE induction; type: in vivo, mice; conditions: lymph node cells day 5
Method: EAE was induced in C57BL/6 mice by s.c injection with 150 μg of MOG35-55 in CFA supplemented with 4 mg/ml H37 Ra M. tuberculosis on day 0. All mice were injected i.p with PT on days 0 and 2. One group of mice were untreated, the second group were given 100 μg Tri-DAP 6 hours before immunization and a third group were given Tri-DAP (100 μg/mouse) on day 0 in MOG/CFA emulsion and again on days 1, 2 and 4. Mice were sacrificed on day 5 and lymph nodes cells were stimulated with MOG peptide (Myelin oligodendrocyte glycoprotein) (20-100 μg/ml) or as negative and positive controls, medium only or PMA and anti-CD3 respectively. After 72 hours supernatants were removed and analyzed for IL-17, TNF-α (TNF-alpha) and IFN-γ (interferon gamma) by ELISA.

[3] = tested on: BMDC; assay: IL-12p40, IL-23, IL-12p70 and IL-10 ELISA in BMDC with p38 or ERK inhibitor, Tri-DAP and LPS or CpG; type: cell-based, murine
Method: BMDC (1×10^6) were pretreated with the p38 inhibitor, SB203580 (5 μM—FIGS. 10-11), or the ERK inhibitor UO126 (5 μM—FIGS. 12-13) for 30 minutes prior to stimulation with Tri-DAP (100 μg/ml) or medium alone. After 2 hours the cells were then stimulated with LPS (100 ng/ml—FIGS. 10 and 12), with the TLR agonist CpG (5 μg/ml—FIGS. 11 and 13) or with medium alone. Supernatants were collected after 24 hours and IL-12p40, IL-23, IL-12p70 and IL-10 concentrations were quantified by ELISA.

[4] = tested on: EAE in SJL mice; assay: SJL mouse relapsing-remitting EAE model (PLP/CFA, PT), clinical score; type: in vivo; conditions: TriDAP 100 μg/mouse every 2 days from day 12, vs PBS, mean of 5-6 mice per group
Source text: EAE (experimental autoimmune encephalomyelitis) was induced in SJL mice by immunization with […] (PLP) in complete Freund's adjuvant (CFA) followed by Bordetella pertussis toxin (PT). SJL mice were developed by James Lambert at The Jackson Laboratory in 1955 from three different sources of Swiss Webster mice. The strain is characterized by its susceptibility to experimental autoimmune encephalomyelitis (EAE) for multiple sclerosis research, and therefore provides an improved model (over the MOG (myelin oligodendrocyte glycoprotein) model) for assessing the therapeutic potential of compounds. Mice were treated with PBS (control) or TriDAP (100 μg/mouse) every 2 days from day 12. Clinical scores were assessed daily and body weights were recorded. Disease severity was graded as follows: grade 0: normal, grade 1: limp tail, grade 2: wobbly gait; grade 3: hind limb weakness; grade 4: hind limb paralysis; grade 5: tetraparalysis/death. † indicates control mice were sacrificed due to severity of EAE disease.

[5] = tested on: Spleen cells; assay: TLR agonist induced cytokines (ELISA) of spleen cells from treated mice; type: in vivo; conditions: TriDAP 100 μg/mouse/day i.p. 5 days vs PBS; LPS, CpG or Pam3Csk; 24 hours
Method: Mice treated with either PBS or TriDAP (100 μg/mouse/day i.p.) for 5 days. Spleen cells ([…]; 1×10^6/ml) were stimulated with medium alone (control), or with a Toll-like Receptor agonist selected from the following: the TLR4 agonist LPS (lipopolysaccharide) (100 ng/ml), the TLR9 agonist CpG (5 μg/ml), or the TL2 agonist Pam3Csk (500 ng/ml). Supernatants were collected after 24 hours and cytokine concentrations were quantified by ELISA.

[6] = Tri-DAP 100 μg/ml pretreatment, LPS 100 ng/ml or CpG 5 μg/ml, 24 hours

Compound: C[C@H](N)C(=O)N[C@H](CCC(=O)N[C@@H](CCC[C@@H](N)C(=O)O)C(=O)O)C(=O)O [Tri-DAP, L-alanyl-γ-D-glutamyl-meso-diaminopimelic acid]
- weight loss ([1]; C57BL/6 EAE mice, Tri-DAP 100 μg/mouse vs untreated control): dramatic weight loss in the control mice when compared to the Tri-DAP treated mice
- first clinical signs of EAE disease ([1]; C57BL/6 mice, Tri-DAP 100 μg/mouse day 0 in MOG/CFA emulsion, days 1, 2 and every 2 days, untreated mice 5-6 days): 11 days post induction
- severity of EAE disease (clinical score) ([1]; C57BL/6 mice, Tri-DAP 100 μg/mouse, untreated peaked at 3.5-4 by day 12): lower than that observed in the untreated control mice
- MOG-specific T cell responses (IL-17, IFN-γ, TNF-α) ([2]; 100 μg Tri-DAP 6 hours before immunization, vs control EAE mice): significantly reduced
- MOG-specific T cell responses (IL-17, IFN-γ, TNF-α) ([2]; Tri-DAP 100 μg/mouse on days 0, 1, 2 and 4): no detectable
- LPS and CpG production of IL-12p40 [3, 6]: enhances
- LPS and CpG production of IL-12p70 [3, 6]: enhances
- LPS and CpG production of IL-23 [3, 6]: enhances
- LPS and CpG induced IL-10 production ([3]; Tri-DAP 100 μg/ml, LPS 100 ng/ml or CpG 5 μg/ml, 24 hours): enhanced
- enhancement of LPS and CpG induced IL-10 production when p38 is inhibited ([3]; p38 inhibitor SB203580 5 μM): completely abolished
- synergy of Tri-DAP with LPS or CpG (IL-12 family), dependence on p38 ([3]; p38 inhibitor SB203580 5 μM): partially dependent on p38
- clinical scores [4]: reduction
- IL-10 secreted by spleen cells after re-stimulation with TLR agonists [5]: higher concentrations
- IL-27 secreted by spleen cells after re-stimulation with TLR agonists [5]: higher concentrations
- TGF-beta secreted by spleen cells after re-stimulation with TLR agonists [5]: higher concentrations
